# According to patent US9156831B2, “Chemical compounds” (ASTRAZENECA AB, priority 2013, dated 2015):
# Tests used:
# LNCAPCLONEFGC = assay: Cell proliferation assay (MTS); format: cell-based, human
# Procedure: (§1) The sensitivity of a panel of human cancer cell lines to the effects of compounds was determined in a standard proliferation assay. Cell lines were sourced through the AstraZeneca Cell Bank.
# (§2) Cells were plated in 96 well plates at densities of 1000-6000 cells per well in RPMI media containing 10% FBS. After incubation at 37° C. for 16 hours, various concentrations of compound were added to the assay plates. After incubation for an additional 72 h, the viable cells were determined by the addition of MTS reagent (Promega #3582) to each well for 2 h. MTS is a tetrazolium salt that is bioreduced by metabolically active cells in the presence of an electron coupling reagent to formazan. The formazan product was then quantitated by absorbance at 490 nm, as an indicator of the relative number of live cells. In order to determine the GI50 (concentration at which growth of cells was inhibited by 50%) the relative number of cells present at the time of drug addition was determined by comparison with the MTS readout before the drug was added, and this value was subtracted from the 72 hr value of untreated cells as a measure of cell growth during the assay.
# RAJI = assay: Cell proliferation assay (MTS); format: cell-based, human
# Procedure: (§3) The sensitivity of a panel of human cancer cell lines to the effects of compounds was determined in a standard proliferation assay.
# as §2
# […] = Cell proliferation assay (MTS); format: cell-based, human
# Procedure: as §3, §2
# VMCUB1 = assay: Cell proliferation assay (MTS); format: cell-based, human
# Procedure: as §3, §2
# HCC70 xenograft = assay: Tumour growth inhibition, HCC70 xenograft model; format: in vivo, mouse; details: Example 3 alone 25 mg/kg BID every day; FIG. 13
# Procedure: HCC70 is breast tumour cell line which is deficient in PTEN gene expression. Female Swiss athymic nude mice (swiss nu/nu—AZUK) were transplanted subcutaneously with the breast ductal epithelial tumour cell line HCC70 (ATCC—CRL2315) cells. 1×10^6 cells in 50% matrigel (BD Bioscience) were injected s.c. on the left flank of the animals.
# Animals were randomised into groups of 10-15 when tumours reached a volume of ˜200-300 mm^3 and treatment commenced. Animals were dosed for 3-4 weeks by peroral route, with compound in a suitable vehicle at defined doses and schedules. Tumours were measured two-three times weekly by caliper and volume of tumours calculated using elliptical formula (pi/6×width×width×length).
# H226 = assay: Cell proliferation assay (MTS); format: cell-based, human
# Procedure: as §3, §2
# SW1990 = assay: Cell proliferation assay (MTS); format: cell-based, human
# Procedure: as §3, §2
# T24 = assay: Cell proliferation assay (MTS); format: cell-based, human
# Procedure: as §1, §2
# HUPT3 = assay: Cell proliferation assay (MTS); format: cell-based, human
# Procedure: as §1, §2
structure (smiles),measurement,setting,value
"CCn1nc(C2CCN(C(=O)CCO)CC2)nc1-c1cnc(N)c(-c2nnc(C(C)(C)C)o2)n1 [Example 3, 1-(4-(5-(5-amino-6-(5-tert-butyl-1,3,4-oxadiazol-2-yl)pyrazin-2-yl)-1-ethyl-1H-1,2,4-triazol-3-yl)piperidin-1-yl)-3-hydroxypropan-1-one]",Category,LNCAPCLONEFGC,Resistant (resistant (GI50>1.0 μM))
same,GI50,"LNCAPCLONEFGC; Homo sapiens, LNCaP-Clone-FGC, Prostate, PIK3CA WT",3.01 µM
same,Category,RAJI,Resistant (resistant (GI50>1.0 μM))
same,GI50,"RAJI; Homo sapiens, Blood/lymph, PIK3CA WT",30 µM
same,GI50,[…]; Homo sapiens,0.792 µM
same,Category,[…]; […],Sensitive (sensitive (GI50<=1.0 μM))
same,Category,VMCUB1,Sensitive (sensitive (GI50<=1.0 μM))
same,GI50,"VMCUB1; Homo sapiens, VM-CUB-1, Bladder, PIK3CA MUT",0.732 µM
same,tumour growth,HCC70 xenograft,inhibited growth more strongly
same,Category,H226,Resistant (resistant (GI50>1.0 μM))
same,GI50,"H226; Homo sapiens, NCI-H226, Lung, PIK3CA WT",10.1 µM
same,Category,SW1990,Resistant (resistant (GI50>1.0 μM))
same,GI50,"SW1990; Homo sapiens, Pancreas, PIK3CA WT",28.3 µM
same,Category,T24,Resistant (resistant (GI50>1.0 μM))
same,GI50,"T24; Homo sapiens, T-24, Bladder, PIK3CA WT",30 µM
same,Category,HUPT3,Resistant (resistant (GI50>1.0 μM))
same,GI50,"HUPT3; Homo sapiens, HuP-T3, Pancreas, PIK3CA WT",13.4 µM
